Experimental data from patent US20260184669A1, “LIPID COMPOUND AND COMPOSITION FOR DELIVERY OF ACTIVE SUBSTANCE” (KOREA RESEARCH INSTIUTE OF BIOSCIENCE AND BIOTECHNOLOGY, priority 2022, published 2026).

What was measured:
[1] = Stability of mRNA-LNPs according to storage temperature and duration; type: physicochemical; conditions: for Normalized EE % D-1 / Size (nm) D-1 / PDI D-1: day 1; for Normalized EE % D-7 / PDI D-7 / Size (nm) D-7: day 7; for Normalized EE % D-30 / PDI D-30 / Size (nm) D-30: day 30
Protocol: Stability of fLuc mRNA-LNPs produced using various ionizable lipids according to the method of Example 27, was assessed by storing the LNPs at 4° C. and 25° C. At 1, 7, and 30 days post-manufacture, the size, PDI, and encapsulation efficiency (EE) of each mRNA-LNPs samples were measured using the methods described in Experimental Examples 2 and 3.

[2] = mRNA encapsulation efficiency (Quant-IT RiboGreen RNA assay); type: physicochemical; conditions: mRNA encapsulation efficiency of mRNA-LNP made with the ionizable lipid; average of two measurements
Protocol: The mRNA encapsulation efficiency (EE, %) of LNPs containing mRNA was measured using the Quant-IT™ RiboGreen® RNA assay kit (Invitrogen, USA).
The diluted samples were added to each well of a 96-well plate. Group A (without Triton X-100) was supplemented with 50 μL of 1×TE buffer, while Group B (with Triton X-100) was supplemented with 50 μL of 1×TE buffer containing 2% Triton-X 100. To release the encapsulated mRNA, the LNPs were treated with Triton-X 100 and incubated at 37° C. for 10 minutes. Subsequently, 100 μL of ribogreen reagent was added to each well. The fluorescence intensities of Group A and Group B were measured using a multi-plate reader (λex 480 nm, λem 520 nm), and mRNA encapsulation efficiency (%) was calculated using Equation 1 below. The encapsulation efficiency for each LNP was determined as the average of two independent measurements.

[3] = Size, polydispersity index and surface charge of mRNA-LNP (Malvern Zetasizer Nano ZS90); type: physicochemical; conditions: for PDI / size (nm) Number: mRNA-LNP made with the ionizable lipid at its optimal formulation (Table 2); for size (nm) Number: diluted with PBS to 1 μg/mL mRNA; for Zeta (mV): surface charge of mRNA-LNP made with the ionizable lipid at its optimal formulation (Table 2)
Protocol: Each mRNA-LNPs produced in Example 27 was diluted with PBS to a final mRNA concentration of 1 μg/mL. The size, polydispersity index (PDI), and surface charge of the mRNA-LNPs were then measured using a Malvern Zetasizer Nano ZS90 (Malvern Instruments, UK).
For particles intended for systemic administration, such as via blood vessels, the particle size must be less than 200 nm in order to pass through the endothelial capillaries of the liver. In addition, the size distribution is considered uniform only when the PDI is 0.3 or less, which enables consistent and efficient therapeutic effects (Non-patent document 3 [Danaei, M. et al). Pharmaceutics 2018, 10, 57]).

female C57BL/6 mice = experiment: Protein expression efficiency of fLuc mRNA-LNPs after intramuscular injection (IVIS whole-body luminescence); type: in vivo; conditions: for Total flux 1 hour / Total flux 3 hours / Total flux 6 hours / Total flux 48 hours / Total flux 72 hours / Total flux: fLuc mRNA-LNP, intramuscular injection, luminescence at injection site, mice; for Total flux 1 hour: 1 hour after administration; for Total flux 3 hours: 3 hours after administration; for Total flux 6 hours: 6 hours after administration; for Total flux 48 hours: 48 hours after administration; for Total flux 72 hours: 72 hours after administration; for Total flux: after administration; for Fold increase in total flux at 3 h, MC3: relative to control LNP formulated with MC3; for Fold increase in total flux at 3 h, MC3 / Fold increase in total flux at 3 h, SM-102: 3 hours after intramuscular injection; for Fold increase in total flux at 3 h, SM-102: relative to control LNP formulated with SM-102
Protocol: fLuc mRNA-LNPs formulated using various ionizable lipids were prepared according to the method described in Example 27 and administered in vivo via intramuscular (I. M.) or intravenous (IV.) injection to compare the resulting protein expression efficiency in vivo. As a control, EGFP mRNA-LNPs formulated with commercially available ionizable lipids MC3 or SM-102 were used. All mRNA-LNPs were administered at equal mRNA doses per body weight across different concentration groups (n≥4).
Specifically, the dose of mRNA-LNPs was adjusted to 0.1-0.5 mg/kg of body weight, and the formulation was administered via I.M. or I.V. injection to female C57BL/6 mice (6-10 weeks old, Orient Bio, Korea) Subsequently, […], whole-body luminescence images were acquired using an in vivo imaging system (IVIS Lumina III, PerkinElmer, Walzam, MA, USA). To assess protein expression levels, 200 μL of D-luciferin (15 mg/mL) was administered via intraperitoneal (I.P.) injection 10 minutes prior to imaging. During image acquisition, the animals were anesthetized by inhalation of 3% isoflurane in 97% medical grade oxygen. In addition, the acquired luminescence images were quantitatively analyzed using imaging software (Living Image Software Version 4.4; PerkinElmer, USA).
After intramuscular injection of the fLuc mRNA-LNPs, the luminescence intensity at the injection site was measured over time.
Furthermore, the luminescence intensity at the injection site 3 hours after intramuscular injection was measured, and the relative protein expression efficiency was compared to that of control LNPs formulated with MC3 or SM-102.

Structure (SMILES)	Normalized EE % D-1 ([1]; fLuc mRNA-LNP stored at 4° C.) [%]	Size (nm) D-1 ([1]; fLuc mRNA-LNP stored at 4° C.) [nm]	Normalized EE % D-7 ([1]; fLuc mRNA-LNP stored at 4° C.) [%]	PDI D-7 ([1]; fLuc mRNA-LNP stored at 4° C.)	Size (nm) D-7 ([1]; fLuc mRNA-LNP stored at 4° C.) [nm]	Normalized EE % D-30 ([1]; fLuc mRNA-LNP stored at 4° C.) [%]	PDI D-30 ([1]; fLuc mRNA-LNP stored at 4° C.)	Size (nm) D-30 ([1]; fLuc mRNA-LNP stored at 4° C.) [nm]	Normalized EE % D-1 ([1]; fLuc mRNA-LNP stored at 25° C.) [%]	PDI D-1 ([1]; fLuc mRNA-LNP stored at 25° C.)	Size (nm) D-1 ([1]; fLuc mRNA-LNP stored at 25° C.) [nm]	Normalized EE % D-7 ([1]; fLuc mRNA-LNP stored at 25° C.) [%]	PDI D-7 ([1]; fLuc mRNA-LNP stored at 25° C.)	Size (nm) D-7 ([1]; fLuc mRNA-LNP stored at 25° C.) [nm]	Normalized EE % D-30 ([1]; fLuc mRNA-LNP stored at 25° C.) [%]	PDI D-30 ([1]; fLuc mRNA-LNP stored at 25° C.)	Size (nm) D-30 ([1]; fLuc mRNA-LNP stored at 25° C.) [nm]	EE (%) [2] [%]	PDI [3]	size (nm) Number [3] [nm]	other results
CCCCCCCCCCCOC(=O)CCCCCN(CCCCCCCC(=O)OC(CCCCCCCC)CCCCCCCC)CC(O)CCCCNC(=O)c1cncn1C (stereo not shown) [Compound 38, Heptadecan-9-yl 8-((2-hydroxy-6-(1-methyl-1H-imidazole-5-carboxamido)hexyl)(6-oxo-6-(undecyloxy)hexyl)amino)octanoate]	88.5	142.2	91.1	0.086	141.1	87.6	0.086	147.3	89.5	0.132	142.2	88.0	0.093	140.4	86.1	0.041	152.0	88	0.132	142	Zeta (mV) [3]: −4.28 mV; Total flux 1 hour (female C57BL/6 mice): 2.19E+07; Total flux 3 hours (female C57BL/6 mice): 4.19E+07; Total flux 6 hours (female C57BL/6 mice): 1.47E+07; Total flux 48 hours (female C57BL/6 mice): 7.89E+05; Total flux 72 hours (female C57BL/6 mice): 5.32E+05; Total flux (female C57BL/6 mice): 2.13E+06; Fold increase in total flux at 3 h, MC3 (female C57BL/6 mice): 3.39; Fold increase in total flux at 3 h, SM-102 (female C57BL/6 mice): 0.37
CCCCCCCCCCCOC(=O)CCCCCN(CCCCCCCC(=O)OC(CCCCCCCC)CCCCCCCC)CC(O)CCCCNC(=O)c1cn(C)cn1 (stereo not shown) [Compound 37, Heptadecan-9-yl 8-((2-hydroxy-6-(1-methyl-1H-imidazole-4-carboxamido)hexyl)(6-oxo-6-(undecyloxy)hexyl)amino)octanoate]	89.5	114.5	89.9	0.155	123.7	90.0	0.280	138.7	89.5	0.154	114.5	88.0	0.087	133.6	83.8	0.126	135.7	89	0.154	115	Zeta (mV) [3]: −3.30 mV; Total flux 1 hour (female C57BL/6 mice): 7.40E+06; Total flux 3 hours (female C57BL/6 mice): 8.89E+06; Total flux 6 hours (female C57BL/6 mice): 5.97E+06; Total flux 48 hours (female C57BL/6 mice): 2.13E+06; Total flux 72 hours (female C57BL/6 mice): 1.85E+06; Total flux (female C57BL/6 mice): 2.32E+06; Fold increase in total flux at 3 h, MC3 (female C57BL/6 mice): 0.72; Fold increase in total flux at 3 h, SM-102 (female C57BL/6 mice): 0.08
